# According to patent US11572590B2, “Methods for evaluating tumor cell spheroids using 3D microfluidic cell culture device” (Dana-Farber Cancer Institute, Inc., priority 2017, dated 2023):
# Like-named read-outs stand apart in the source and are kept apart here.
# Columns and labels:
# Experiment in all cases: SelectScreen Kinase Profiling, single point inhibition and IC50 for off-target kinases
# Format in all cases: biochemical
# [1] = molecular target: off-target kinases (Homo sapiens, UniProt P00533, L858R/T790M); settings: EGFR (ErbB1) T790M L858R, mutant y, ZLYTE, ATP Km app
# [2] = molecular target: off-target kinases (Homo sapiens, UniProt Q9UKE5); settings: TNIK, LanthaScreen Binding
# [3] = molecular target: off-target kinases (Homo sapiens, UniProt P07333); settings: CSF1R (FMS), ATP Km app, ZLYTE
# [4] = molecular target: T1, off-target kinases (Homo sapiens, UniProt O14936); settings: CASK, LanthaScreen Binding
# T1 sequence (O14936 1-926): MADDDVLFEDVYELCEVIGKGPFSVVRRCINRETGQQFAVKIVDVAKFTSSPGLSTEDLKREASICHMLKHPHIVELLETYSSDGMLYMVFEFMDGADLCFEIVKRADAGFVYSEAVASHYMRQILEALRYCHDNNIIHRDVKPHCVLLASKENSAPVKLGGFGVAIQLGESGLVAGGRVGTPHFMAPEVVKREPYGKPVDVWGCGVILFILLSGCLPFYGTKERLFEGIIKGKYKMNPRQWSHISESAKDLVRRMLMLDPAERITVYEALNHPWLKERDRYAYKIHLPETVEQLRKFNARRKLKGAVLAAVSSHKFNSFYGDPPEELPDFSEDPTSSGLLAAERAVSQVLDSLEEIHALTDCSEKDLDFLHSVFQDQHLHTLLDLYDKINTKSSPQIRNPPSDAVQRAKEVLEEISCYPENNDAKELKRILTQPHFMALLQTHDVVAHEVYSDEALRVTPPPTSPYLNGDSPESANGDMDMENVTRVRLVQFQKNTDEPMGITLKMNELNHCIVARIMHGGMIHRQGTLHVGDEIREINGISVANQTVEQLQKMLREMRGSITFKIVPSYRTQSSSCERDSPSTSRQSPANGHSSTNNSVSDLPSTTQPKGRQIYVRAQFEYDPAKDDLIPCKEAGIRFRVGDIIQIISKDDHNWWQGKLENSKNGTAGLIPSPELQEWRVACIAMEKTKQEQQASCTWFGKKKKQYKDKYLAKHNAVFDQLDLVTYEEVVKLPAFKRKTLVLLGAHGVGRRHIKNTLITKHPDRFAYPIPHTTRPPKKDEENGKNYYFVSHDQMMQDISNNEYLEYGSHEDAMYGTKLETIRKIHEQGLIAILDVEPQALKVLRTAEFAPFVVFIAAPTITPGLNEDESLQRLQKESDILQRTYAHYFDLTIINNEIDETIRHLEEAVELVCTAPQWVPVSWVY
# [5] = molecular target: off-target kinases (Homo sapiens, UniProt P49761); settings: CLK3, ZLYTE, ATP Km app
# [6] = molecular target: off-target kinases (Homo sapiens, UniProt P22607, K650M); settings: FGFR3 K650M, mutant y, LanthaScreen Binding
# [7] = molecular target: off-target kinases (Homo sapiens, UniProt P10721, T670I/V559D); settings: KIT V559D T670I, LanthaScreen Binding
# [8] = molecular target: off-target kinases (Homo sapiens, UniProt P50750)
# off-target kinases (Homo sapiens, UniProt P50750), sequence (P50750 whole entry): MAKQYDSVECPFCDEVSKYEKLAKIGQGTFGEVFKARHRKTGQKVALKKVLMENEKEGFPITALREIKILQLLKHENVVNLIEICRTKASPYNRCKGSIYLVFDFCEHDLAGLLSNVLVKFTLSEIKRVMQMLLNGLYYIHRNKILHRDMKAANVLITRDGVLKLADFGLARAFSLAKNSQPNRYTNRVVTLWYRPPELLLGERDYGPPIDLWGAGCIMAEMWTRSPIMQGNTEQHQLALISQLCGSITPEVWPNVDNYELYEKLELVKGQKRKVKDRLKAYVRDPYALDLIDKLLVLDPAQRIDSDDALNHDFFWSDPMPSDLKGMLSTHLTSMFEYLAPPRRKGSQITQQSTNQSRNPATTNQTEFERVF
# off-target kinases (Homo sapiens, UniProt P00533, L858R/T790M), sequence (P00533 25-1210 T790M/L858R): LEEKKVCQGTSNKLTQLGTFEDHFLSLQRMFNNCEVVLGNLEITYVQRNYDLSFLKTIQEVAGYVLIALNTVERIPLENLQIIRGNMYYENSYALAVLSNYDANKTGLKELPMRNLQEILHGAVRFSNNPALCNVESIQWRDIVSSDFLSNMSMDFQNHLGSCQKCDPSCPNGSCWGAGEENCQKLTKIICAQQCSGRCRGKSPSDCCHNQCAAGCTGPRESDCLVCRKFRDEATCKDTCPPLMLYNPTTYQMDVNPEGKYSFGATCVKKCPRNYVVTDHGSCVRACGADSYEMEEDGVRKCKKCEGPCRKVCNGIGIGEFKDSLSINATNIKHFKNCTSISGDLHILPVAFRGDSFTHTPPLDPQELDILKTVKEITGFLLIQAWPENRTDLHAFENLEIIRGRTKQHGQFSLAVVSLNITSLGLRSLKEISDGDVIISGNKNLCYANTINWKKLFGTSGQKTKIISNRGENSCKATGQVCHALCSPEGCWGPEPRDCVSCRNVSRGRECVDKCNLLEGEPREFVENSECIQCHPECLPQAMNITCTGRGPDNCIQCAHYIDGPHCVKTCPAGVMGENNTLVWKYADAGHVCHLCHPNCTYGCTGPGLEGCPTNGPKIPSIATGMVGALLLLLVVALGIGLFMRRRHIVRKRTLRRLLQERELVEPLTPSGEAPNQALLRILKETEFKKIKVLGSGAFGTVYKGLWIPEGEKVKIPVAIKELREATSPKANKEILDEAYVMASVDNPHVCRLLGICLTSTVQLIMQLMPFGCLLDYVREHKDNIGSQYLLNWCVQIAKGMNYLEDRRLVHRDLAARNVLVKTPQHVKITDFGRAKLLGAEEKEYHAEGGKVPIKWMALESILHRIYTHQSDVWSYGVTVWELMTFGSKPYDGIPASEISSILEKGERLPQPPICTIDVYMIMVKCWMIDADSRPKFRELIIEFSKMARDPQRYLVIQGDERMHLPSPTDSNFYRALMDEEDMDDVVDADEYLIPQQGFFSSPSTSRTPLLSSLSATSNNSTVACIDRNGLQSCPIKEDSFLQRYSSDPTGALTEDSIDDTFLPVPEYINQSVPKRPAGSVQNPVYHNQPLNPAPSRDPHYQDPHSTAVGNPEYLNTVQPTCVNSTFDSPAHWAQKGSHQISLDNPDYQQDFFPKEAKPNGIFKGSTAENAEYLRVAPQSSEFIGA
# off-target kinases (Homo sapiens, UniProt P22607, K650M), sequence (P22607 23-806 K650M): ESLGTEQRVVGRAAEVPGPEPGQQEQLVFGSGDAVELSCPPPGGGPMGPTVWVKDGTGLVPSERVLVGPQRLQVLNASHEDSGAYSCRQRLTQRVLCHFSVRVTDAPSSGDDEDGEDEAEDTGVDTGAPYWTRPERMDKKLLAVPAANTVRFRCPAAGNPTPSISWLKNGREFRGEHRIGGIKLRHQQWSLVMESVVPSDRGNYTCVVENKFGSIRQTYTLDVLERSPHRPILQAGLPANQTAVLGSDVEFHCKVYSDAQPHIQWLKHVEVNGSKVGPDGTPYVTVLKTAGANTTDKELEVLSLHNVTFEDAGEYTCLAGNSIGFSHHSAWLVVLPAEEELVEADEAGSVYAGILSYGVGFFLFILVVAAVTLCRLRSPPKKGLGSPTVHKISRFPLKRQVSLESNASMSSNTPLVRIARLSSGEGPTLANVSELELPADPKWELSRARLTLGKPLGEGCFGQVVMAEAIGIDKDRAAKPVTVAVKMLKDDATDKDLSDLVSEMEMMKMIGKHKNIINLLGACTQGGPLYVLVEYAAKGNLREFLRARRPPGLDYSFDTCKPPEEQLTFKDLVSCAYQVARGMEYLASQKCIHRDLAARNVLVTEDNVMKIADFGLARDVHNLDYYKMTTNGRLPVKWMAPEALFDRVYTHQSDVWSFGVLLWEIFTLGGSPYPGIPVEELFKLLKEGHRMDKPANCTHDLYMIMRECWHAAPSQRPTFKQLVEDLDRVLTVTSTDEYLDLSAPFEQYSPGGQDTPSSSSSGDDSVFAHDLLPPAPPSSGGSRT
# off-target kinases (Homo sapiens, UniProt P49761), sequence (P49761 whole entry): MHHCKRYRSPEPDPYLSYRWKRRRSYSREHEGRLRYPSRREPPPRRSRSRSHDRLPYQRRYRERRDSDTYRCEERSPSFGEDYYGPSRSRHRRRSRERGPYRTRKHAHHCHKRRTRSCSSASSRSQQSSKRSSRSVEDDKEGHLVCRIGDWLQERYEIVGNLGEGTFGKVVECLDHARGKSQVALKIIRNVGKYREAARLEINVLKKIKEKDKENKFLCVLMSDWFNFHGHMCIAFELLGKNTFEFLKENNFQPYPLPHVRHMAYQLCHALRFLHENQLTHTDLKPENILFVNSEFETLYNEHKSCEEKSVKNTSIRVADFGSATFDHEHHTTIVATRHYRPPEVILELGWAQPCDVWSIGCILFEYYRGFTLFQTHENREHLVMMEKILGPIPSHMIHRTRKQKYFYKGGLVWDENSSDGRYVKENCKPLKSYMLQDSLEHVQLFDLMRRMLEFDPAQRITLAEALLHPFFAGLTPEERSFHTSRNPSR
# off-target kinases (Homo sapiens, UniProt Q9UKE5), sequence (Q9UKE5 whole entry): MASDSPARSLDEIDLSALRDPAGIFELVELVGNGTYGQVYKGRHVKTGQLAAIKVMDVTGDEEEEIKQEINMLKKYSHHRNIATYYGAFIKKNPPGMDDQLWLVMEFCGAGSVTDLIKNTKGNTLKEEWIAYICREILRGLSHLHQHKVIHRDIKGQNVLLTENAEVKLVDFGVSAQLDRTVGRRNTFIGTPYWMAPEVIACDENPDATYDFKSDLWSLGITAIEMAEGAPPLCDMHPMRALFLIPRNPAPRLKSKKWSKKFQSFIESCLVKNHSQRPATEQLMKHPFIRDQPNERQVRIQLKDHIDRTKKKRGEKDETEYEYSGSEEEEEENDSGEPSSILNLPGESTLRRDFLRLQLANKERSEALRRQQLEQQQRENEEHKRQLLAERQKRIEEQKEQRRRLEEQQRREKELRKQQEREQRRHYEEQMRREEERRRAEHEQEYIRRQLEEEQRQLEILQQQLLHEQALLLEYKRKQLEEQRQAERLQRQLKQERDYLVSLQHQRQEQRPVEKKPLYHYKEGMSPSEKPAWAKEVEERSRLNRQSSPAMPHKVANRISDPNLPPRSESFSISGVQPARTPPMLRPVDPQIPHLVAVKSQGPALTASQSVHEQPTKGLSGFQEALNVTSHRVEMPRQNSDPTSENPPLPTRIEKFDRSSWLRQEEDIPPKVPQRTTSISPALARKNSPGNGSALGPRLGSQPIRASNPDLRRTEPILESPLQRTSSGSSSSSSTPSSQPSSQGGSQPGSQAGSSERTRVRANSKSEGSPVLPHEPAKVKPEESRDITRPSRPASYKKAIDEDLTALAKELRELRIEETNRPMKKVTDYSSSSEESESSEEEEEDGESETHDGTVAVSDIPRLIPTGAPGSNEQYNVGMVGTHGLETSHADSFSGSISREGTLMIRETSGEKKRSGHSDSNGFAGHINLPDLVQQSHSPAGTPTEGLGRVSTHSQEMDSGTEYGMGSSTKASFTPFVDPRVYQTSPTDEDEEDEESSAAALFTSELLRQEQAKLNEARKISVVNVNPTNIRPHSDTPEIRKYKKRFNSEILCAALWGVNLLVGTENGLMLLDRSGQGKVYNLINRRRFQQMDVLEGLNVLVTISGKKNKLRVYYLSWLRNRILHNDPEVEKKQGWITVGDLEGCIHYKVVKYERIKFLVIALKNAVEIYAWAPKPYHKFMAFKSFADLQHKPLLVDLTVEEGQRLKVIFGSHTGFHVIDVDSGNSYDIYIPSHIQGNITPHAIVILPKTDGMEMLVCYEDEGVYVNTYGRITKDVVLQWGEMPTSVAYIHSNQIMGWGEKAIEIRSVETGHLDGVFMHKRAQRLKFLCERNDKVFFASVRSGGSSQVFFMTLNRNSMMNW
smiles,measurement,setting,value
"N#Cc1cc(-c2ncnc(Nc3ccc(N4CCN(C5COC5)CC4)cc3)n2)ccc1OC1CCOCC1 [Compound 1, 5-(4-((4-(4-(oxetan-3-yl)piperazin-1-yl)phenyl)amino)-1,3,5-triazin-2-yl)-2-((tetrahydro-2H-pyran-4-yl)oxy)benzonitrile]",inhibition,[1]; read-out: % Inhibition 1,34%
same,inhibition,[1]; read-out: % Inhibition 2,29%
same,inhibition,[1]; read-out: % Inhibition Avg,31%
same,inhibition,[2]; read-out: % Inhibition 1,46%
same,inhibition,[2]; read-out: % Inhibition 2,43%
same,inhibition,[2]; read-out: % Inhibition Avg,45%
same,inhibition,[3]; read-out: % Inhibition 1,91%
same,inhibition,[3]; read-out: % Inhibition 2,96%
same,inhibition,[3]; read-out: % Inhibition Avg,93%
same,inhibition,[4]; read-out: % Inhibition 1,6%
same,inhibition,[4]; read-out: % Inhibition 2,10%
same,inhibition,[4]; read-out: % Inhibition Avg,8%
same,inhibition,[5]; read-out: % Inhibition 1,1%
same,inhibition,[5]; read-out: % Inhibition 2,3%
same,inhibition,[5]; read-out: % Inhibition Avg,2%
same,inhibition,[6]; read-out: % Inhibition 1,33%
same,inhibition,[6]; read-out: % Inhibition 2,38%
same,inhibition,[6]; read-out: % Inhibition Avg,35%
same,inhibition,[7]; read-out: % Inhibition 1,46%
same,inhibition,[7]; read-out: % Inhibition 2,49%
same,inhibition,[7]; read-out: % Inhibition Avg,47%
same,inhibition,"[8]; CDK9 (Inactive), LanthaScreen Binding, read-out: % Inhibition 1",8%
same,inhibition,"[8]; CDK9 (Inactive), LanthaScreen Binding, read-out: % Inhibition 2",13%
same,inhibition,"[8]; CDK9 (Inactive), LanthaScreen Binding, read-out: % Inhibition Avg",10%
same,inhibition,"[8]; CDK9/cyclin K, LanthaScreen Binding, read-out: % Inhibition 1",11%
same,inhibition,"[8]; CDK9/cyclin K, LanthaScreen Binding, read-out: % Inhibition 2",9%
same,inhibition,"[8]; CDK9/cyclin K, LanthaScreen Binding, read-out: % Inhibition Avg",10%
same,inhibition,"[8]; CDK9/cyclin T1, Adapta, ATP Km app, read-out: % Inhibition 1",18%
same,inhibition,"[8]; CDK9/cyclin T1, Adapta, ATP Km app, read-out: % Inhibition 2",22%
same,inhibition,"[8]; CDK9/cyclin T1, Adapta, ATP Km app, read-out: % Inhibition Avg",20%
